Measurements as given in patent US6355799B1, “Substituted benzene compounds, process for their preparation, and herbicidal and defoliant compositions containing them” (ISK Americas Incorporated, priority 1997, dated 2002).

Tests used:
Format in all cases: in vivo
[1] = test system: redroot pigweed (Amaranthus retroflexus, AMARE); assay: Pre-emerge test, greenhouse herbicide activity screening
How it was run: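 Compounds in acetone were track-sprayed at 15-1000 g ai/ha (187 l/ha) on sandy loam pots: pre-emerge one day after seeding, post-emerge at 2-3 leaf stage with 0.25% v/v non-ionic surfactant. Phytotoxicity was rated 14 days later on a 0 (no damage) to 100 (complete death) scale.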

[2] = test system: barnyardgrass (Echinochloa crus-galli, ECHCG); assay: as above
How it was run: (§1)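 Fourteen days after spraying, crop and weed injury was graded visually from 0, no effect, to 100, every plant dead. Test substances were dissolved in acetone and applied at 15–1000 g ai/ha with a flat-fan nozzle. Application was either pre-emergence, one day after sowing, or post-emergence at the 2–3 leaf stage.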

[3] = test system: green foxtail (Setaria viridis, SETVI); assay: as above
How it was run: as §1

[4] = test system: ivyleaf morningglory (Ipomoea hederacea, IPOHE); assay: as above
How it was run: as §1

[5] = test system: johnsongrass (Sorghum halepense, SORHA); assay: as above
How it was run: as §1

[6] = test system: lambsquarters (Chenopodium album, CHEAL); assay: as above
How it was run: as §1

[7] = test system: large crabgrass (Digitaria sanguinalis, DIGSA); assay: as above
How it was run: as §1

[8] = test system: sicklepod (Cassia obtusifolia, CASOB); assay: as above
How it was run: as §1

[9] = test system: velvetleaf (Abutilon theophrasti, ABUTH); assay: as above
How it was run: as §1

[10] = test system: field corn (Zea mays L., var. Dekalb 535, CORN); assay: Pre-emerge test, crop safety
How it was run: (§2)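 Herbicidal damage is scored 0 (none) to 100 (complete plant death) two weeks after a simulated field spray. Rates span 15–1000 g ai/ha, delivered in acetone at 187 l/ha. For post-emergence treatments, plants have 2–3 leaves and the spray carries 0.25% v/v non-ionic surfactant.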

[11] = test system: upland rice (Oryza sp., var. Tebonnet, RICE); assay: Pre-emerge test, crop safety
How it was run: as §2

[12] = test system: barnyardgrass (Echinochloa crus-galli, ECHCG); assay: Post-emerge test, greenhouse herbicide activity screening; conditions: post-emerge; for Post-emerge Herbicidal Activity ECHCG: phytotoxicity rating 0-100 at 14 days after application; for phytotoxicity rating ECHCG: 14 days after application, rating scale 0-100
How it was run: (§3)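 Compounds in acetone were track-sprayed at 15–1000 g ai/ha: pre-emergence onto soil sown the previous day, then top-watered to incorporate and later bottom-watered; post-emergence onto 2–3 leaf plants with 0.25% v/v surfactant, bottom-watered only. Ratings on a 0–100 phytotoxicity scale were taken at day 14.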

[13] = test system: green foxtail (Setaria viridis, SETVI); assay: as above; conditions: post-emerge; for Post-emerge Herbicidal Activity SETVI: phytotoxicity rating 0-100 at 14 days after application; for phytotoxicity rating SETVI: 14 days after application, rating scale 0-100
How it was run: as §3

[14] = test system: ivyleaf morningglory (Ipomoea hederacea, IPOHE); assay: as above; conditions: post-emerge; for Post-emerge Herbicidal Activity IPOHE: phytotoxicity rating 0-100 at 14 days after application; for phytotoxicity rating IPOHE: 14 days after application, rating scale 0-100
How it was run: as §3

[15] = test system: johnsongrass (Sorghum halepense, SORHA); assay: as above; conditions: post-emerge; for Post-emerge Herbicidal Activity SORHA: phytotoxicity rating 0-100 at 14 days after application; for phytotoxicity rating SORHA: 14 days after application, rating scale 0-100
How it was run: as §3

[16] = test system: lambsquarters (Chenopodium album, CHEAL); assay: as above; conditions: post-emerge; for Post-emerge Herbicidal Activity CHEAL: phytotoxicity rating 0-100 at 14 days after application; for phytotoxicity rating CHEAL: 14 days after application, rating scale 0-100
How it was run: as §3

[17] = test system: large crabgrass (Digitaria sanguinalis, DIGSA); assay: as above; conditions: post-emerge; for Post-emerge Herbicidal Activity DIGSA: phytotoxicity rating 0-100 at 14 days after application; for phytotoxicity rating DIGSA: 14 days after application, rating scale 0-100
How it was run: as §3

[18] = test system: redroot pigweed (Amaranthus retroflexus, AMARE); assay: as above; conditions: post-emerge; for Post-emerge Herbicidal Activity AMARE: phytotoxicity rating 0-100 at 14 days after application; for phytotoxicity rating AMARE: 14 days after application
How it was run: as §3

[19] = test system: sicklepod (Cassia obtusifolia, CASOB); assay: as above; conditions: post-emerge; for Post-emerge Herbicidal Activity CASOB: phytotoxicity rating 0-100 at 14 days after application; for phytotoxicity rating CASOB: 14 days after application, rating scale 0-100
How it was run: as §3

[20] = test system: velvetleaf (Abutilon theophrasti, ABUTH); assay: as above; conditions: post-emerge; for Post-emerge Herbicidal Activity ABUTH: phytotoxicity rating 0-100 at 14 days after application; for phytotoxicity rating ABUTH: 14 days after application, rating scale 0-100
How it was run: as §3

[21] = test system: field corn (Zea mays L., var. Dekalb 535, CORN); assay: Post-emerge test, crop safety; conditions: post-emerge; for Post-emerge Herbicidal Activity CORN: crop damage rating 0-100 at 14 days after application; for phytotoxicity rating CORN (crop damage): 14 days after application, rating scale 0-100
How it was run: as §1

[22] = test system: upland rice (Oryza sp., var. Tebonnet, RICE); assay: Post-emerge test, crop safety; conditions: post-emerge; for Post-emerge Herbicidal Activity RICE: crop damage rating 0-100 at 14 days after application; for phytotoxicity rating RICE (crop damage): 14 days after application, rating scale 0-100
How it was run: as §1

[23] = pre-emerge, rate 63 g ai/ha, phytotoxicity rating 0-100 at 14 days after application
[24] = pre-emerge, rate 125 g ai/ha, phytotoxicity rating 0-100 at 14 days after application
[25] = crop damage, pre-emerge, rate 63 g ai/ha, phytotoxicity rating 0-100 at 14 days after application
[26] = crop damage, pre-emerge, rate 125 g ai/ha, phytotoxicity rating 0-100 at 14 days after application
[27] = 63 g ai/ha, phytotoxicity rating 0-100, 14 days after application
[28] = 250 g ai/ha, phytotoxicity rating 0-100, 14 days after application
[29] = 63 g ai/ha, crop damage rating 0-100, 14 days after application
[30] = 250 g ai/ha, crop damage rating 0-100, 14 days after application

C#CCOc1c(Cl)cc(F)c(N2C(=O)C3=C(CCCC3)C2=O)c1NC(=O)c1ccc(F)cc1F [8-13]
60: Post-emerge Herbicidal Activity IPOHE ([14]; 125 g ai/ha)
30: Pre-emerge Herbicidal Activity ECHCG [2, 24] | Pre-emerge Herbicidal Activity SORHA [5, 24] | Post-emerge Herbicidal Activity SETVI ([13]; 63 g ai/ha) | Post-emerge Herbicidal Activity SETVI ([13]; 125 g ai/ha) | Post-emerge Herbicidal Activity CASOB ([19]; 63 g ai/ha) | Post-emerge Herbicidal Activity RICE ([22]; 63 g ai/ha)
40: Pre-emerge Herbicidal Activity SETVI [3, 24] | Pre-emerge Herbicidal Activity DIGSA [7, 24] | Post-emerge Herbicidal Activity ECHCG ([12]; 125 g ai/ha) | Post-emerge Herbicidal Activity CORN ([21]; 125 g ai/ha)
10: Pre-emerge Herbicidal Activity RICE [11, 25] | Pre-emerge Herbicidal Activity RICE [11, 26] | Post-emerge Herbicidal Activity SORHA ([15]; 63 g ai/ha) | Post-emerge Herbicidal Activity DIGSA ([17]; 125 g ai/ha) | Post-emerge Herbicidal Activity CORN ([21]; 63 g ai/ha)
0: Pre-emerge Herbicidal Activity ECHCG [2, 23] | Pre-emerge Herbicidal Activity IPOHE [4, 23] | Pre-emerge Herbicidal Activity IPOHE [4, 24] | Pre-emerge Herbicidal Activity SORHA [5, 23] | Pre-emerge Herbicidal Activity DIGSA [7, 23] | Pre-emerge Herbicidal Activity CASOB [8, 23] | Pre-emerge Herbicidal Activity CASOB [8, 24] | Pre-emerge Herbicidal Activity CORN [10, 25] | Pre-emerge Herbicidal Activity CORN [10, 26]
90: Pre-emerge Herbicidal Activity ABUTH [9, 23] | Post-emerge Herbicidal Activity CHEAL ([16]; 63 g ai/ha) | Post-emerge Herbicidal Activity CHEAL ([16]; 125 g ai/ha)
70: Pre-emerge Herbicidal Activity AMARE [1, 24] | Pre-emerge Herbicidal Activity CHEAL [6, 24] | Post-emerge Herbicidal Activity RICE ([22]; 125 g ai/ha)
100: Pre-emerge Herbicidal Activity CHEAL [6, 23] | Pre-emerge Herbicidal Activity ABUTH [9, 24] | Post-emerge Herbicidal Activity AMARE ([18]; 63 g ai/ha) | Post-emerge Herbicidal Activity AMARE ([18]; 125 g ai/ha) | Post-emerge Herbicidal Activity ABUTH ([20]; 63 g ai/ha) | Post-emerge Herbicidal Activity ABUTH ([20]; 125 g ai/ha)
20: Pre-emerge Herbicidal Activity SETVI [3, 23] | Post-emerge Herbicidal Activity ECHCG ([12]; 63 g ai/ha) | Post-emerge Herbicidal Activity SORHA ([15]; 125 g ai/ha) | Post-emerge Herbicidal Activity DIGSA ([17]; 63 g ai/ha)
50: Pre-emerge Herbicidal Activity AMARE [1, 23] | Post-emerge Herbicidal Activity IPOHE ([14]; 63 g ai/ha) | Post-emerge Herbicidal Activity CASOB ([19]; 125 g ai/ha)

Cn1c(C(F)(F)F)cc(=O)n(-c2ccc(OC(F)(F)F)cc2NC(=O)c2ccc3ccccc3c2)c1=O [2-203]
80: Pre-emerge Herbicidal Activity ECHCG [2, 28]
10: Pre-emerge Herbicidal Activity IPOHE [4, 27] | Pre-emerge Herbicidal Activity RICE [11, 29] | phytotoxicity rating ECHCG ([12]; 63 g ai/ha) | phytotoxicity rating SORHA ([15]; 63 g ai/ha) | phytotoxicity rating DIGSA ([17]; 63 g ai/ha) | phytotoxicity rating CORN (crop damage) ([21]; 63 g ai/ha) | phytotoxicity rating CORN (crop damage) ([21]; 250 g ai/ha)
100: Pre-emerge Herbicidal Activity AMARE [1, 28] | Pre-emerge Herbicidal Activity CHEAL [6, 27] | Pre-emerge Herbicidal Activity CHEAL [6, 28] | Pre-emerge Herbicidal Activity ABUTH [9, 28] | phytotoxicity rating CHEAL ([16]; 63 g ai/ha) | phytotoxicity rating CHEAL ([16]; 250 g ai/ha) | phytotoxicity rating AMARE ([18]; 63 g ai/ha, rating scale 0-100 (0 no damage, 100 complete death)) | phytotoxicity rating AMARE ([18]; 250 g ai/ha, rating scale 0-100) | phytotoxicity rating CASOB ([19]; 63 g ai/ha) | phytotoxicity rating CASOB ([19]; 250 g ai/ha) | phytotoxicity rating ABUTH ([20]; 63 g ai/ha) | phytotoxicity rating ABUTH ([20]; 250 g ai/ha)
90: Pre-emerge Herbicidal Activity DIGSA [7, 28] | Pre-emerge Herbicidal Activity CASOB [8, 28]
95: phytotoxicity rating IPOHE ([14]; 250 g ai/ha)
0: Pre-emerge Herbicidal Activity ECHCG [2, 27] | Pre-emerge Herbicidal Activity SORHA [5, 27] | Pre-emerge Herbicidal Activity CORN [10, 29] | Pre-emerge Herbicidal Activity CORN [10, 30]
60: Pre-emerge Herbicidal Activity DIGSA [7, 27] | phytotoxicity rating IPOHE ([14]; 63 g ai/ha)
75: Pre-emerge Herbicidal Activity ABUTH [9, 27]
30: Pre-emerge Herbicidal Activity CASOB [8, 27] | phytotoxicity rating ECHCG ([12]; 250 g ai/ha) | phytotoxicity rating SETVI ([13]; 250 g ai/ha) | phytotoxicity rating DIGSA ([17]; 250 g ai/ha) | phytotoxicity rating RICE (crop damage) ([22]; 250 g ai/ha)
20: Pre-emerge Herbicidal Activity SETVI [3, 27] | Pre-emerge Herbicidal Activity RICE [11, 30] | phytotoxicity rating SETVI ([13]; 63 g ai/ha) | phytotoxicity rating SORHA ([15]; 250 g ai/ha)
70: Pre-emerge Herbicidal Activity AMARE [1, 27] | Pre-emerge Herbicidal Activity SETVI [3, 28] | Pre-emerge Herbicidal Activity IPOHE [4, 28]
25: phytotoxicity rating RICE (crop damage) ([22]; 63 g ai/ha)
40: Pre-emerge Herbicidal Activity SORHA [5, 28]
